Experiment [1] addresses Histone acetyltransferase KAT6B (Homo sapiens, UniProt Q8WYB5). Put plainly: Inhibition of MYST4 (unknown origin).
In experiment [2] the target is CREB-binding protein (Homo sapiens, UniProt Q92793). Put plainly: Inhibition of CBP (unknown origin).
Experiment [3] addresses Histone acetyltransferase KAT2A (Homo sapiens, UniProt Q92830). Put plainly: Inhibition of GCN5 (unknown origin).

The results in this text go back to ChEMBL document CHEMBL5029162, “4-Pyridone-3-carboxylic acid as a benzoic acid bioisostere: Design, synthesis, and evaluation of EP300/CBP histone acetyltransferase inhibitors” (Bioorg Med Chem Lett, 2021).

Bounds are passed on as bounds.

Sequence of Histone acetyltransferase KAT6B (Q8WYB5 whole entry): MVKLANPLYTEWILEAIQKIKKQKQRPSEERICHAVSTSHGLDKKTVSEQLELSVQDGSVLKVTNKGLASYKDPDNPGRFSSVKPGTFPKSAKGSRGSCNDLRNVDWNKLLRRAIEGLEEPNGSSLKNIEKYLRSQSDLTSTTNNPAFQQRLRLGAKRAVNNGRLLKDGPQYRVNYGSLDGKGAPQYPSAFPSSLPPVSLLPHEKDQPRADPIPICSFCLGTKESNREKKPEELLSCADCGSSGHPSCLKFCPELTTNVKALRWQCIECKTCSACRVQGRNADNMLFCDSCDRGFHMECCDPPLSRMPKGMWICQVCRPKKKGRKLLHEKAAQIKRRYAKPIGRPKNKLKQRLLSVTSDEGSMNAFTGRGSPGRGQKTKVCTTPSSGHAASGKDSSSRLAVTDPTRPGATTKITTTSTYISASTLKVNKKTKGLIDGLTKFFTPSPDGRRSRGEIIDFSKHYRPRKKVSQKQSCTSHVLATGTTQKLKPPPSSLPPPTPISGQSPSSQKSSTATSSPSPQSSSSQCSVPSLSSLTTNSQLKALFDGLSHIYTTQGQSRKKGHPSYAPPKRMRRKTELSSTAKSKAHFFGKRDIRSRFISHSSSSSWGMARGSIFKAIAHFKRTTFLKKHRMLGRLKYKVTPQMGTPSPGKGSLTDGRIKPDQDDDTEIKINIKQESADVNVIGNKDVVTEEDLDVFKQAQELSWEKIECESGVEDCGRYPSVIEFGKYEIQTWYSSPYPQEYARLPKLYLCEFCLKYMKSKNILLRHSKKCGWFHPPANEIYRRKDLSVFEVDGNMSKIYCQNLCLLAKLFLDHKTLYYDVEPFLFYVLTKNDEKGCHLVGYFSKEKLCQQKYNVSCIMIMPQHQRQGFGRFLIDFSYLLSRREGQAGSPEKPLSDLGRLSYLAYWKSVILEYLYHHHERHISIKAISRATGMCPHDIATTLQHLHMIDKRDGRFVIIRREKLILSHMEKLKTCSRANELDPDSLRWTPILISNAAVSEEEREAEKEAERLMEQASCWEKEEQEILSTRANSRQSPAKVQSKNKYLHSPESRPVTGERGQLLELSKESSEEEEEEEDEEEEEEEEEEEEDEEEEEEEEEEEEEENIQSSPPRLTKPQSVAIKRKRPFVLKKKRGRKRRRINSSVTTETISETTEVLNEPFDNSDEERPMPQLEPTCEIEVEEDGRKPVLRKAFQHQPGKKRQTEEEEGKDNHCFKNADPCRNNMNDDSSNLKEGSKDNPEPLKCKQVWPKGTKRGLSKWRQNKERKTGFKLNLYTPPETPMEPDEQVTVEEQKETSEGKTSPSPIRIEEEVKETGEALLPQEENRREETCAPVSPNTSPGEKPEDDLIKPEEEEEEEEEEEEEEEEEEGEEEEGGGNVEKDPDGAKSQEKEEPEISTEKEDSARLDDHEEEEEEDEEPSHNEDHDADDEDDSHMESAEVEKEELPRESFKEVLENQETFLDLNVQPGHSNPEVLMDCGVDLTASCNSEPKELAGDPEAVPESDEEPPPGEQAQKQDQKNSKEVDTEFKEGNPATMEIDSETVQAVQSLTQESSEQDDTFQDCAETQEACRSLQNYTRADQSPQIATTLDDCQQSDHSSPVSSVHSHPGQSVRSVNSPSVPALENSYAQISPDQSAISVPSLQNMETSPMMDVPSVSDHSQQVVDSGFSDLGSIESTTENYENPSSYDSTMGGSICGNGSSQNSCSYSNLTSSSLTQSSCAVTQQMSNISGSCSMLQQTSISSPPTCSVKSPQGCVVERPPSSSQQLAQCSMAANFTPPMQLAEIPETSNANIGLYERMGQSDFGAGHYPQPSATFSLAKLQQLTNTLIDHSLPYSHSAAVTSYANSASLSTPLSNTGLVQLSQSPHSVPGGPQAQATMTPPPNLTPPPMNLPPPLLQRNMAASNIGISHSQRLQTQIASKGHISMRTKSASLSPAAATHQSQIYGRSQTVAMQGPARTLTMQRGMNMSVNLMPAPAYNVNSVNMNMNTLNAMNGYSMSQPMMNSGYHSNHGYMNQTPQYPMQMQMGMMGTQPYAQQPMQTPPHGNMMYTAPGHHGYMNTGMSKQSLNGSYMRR
Sequence of CREB-binding protein (Q92793 whole entry): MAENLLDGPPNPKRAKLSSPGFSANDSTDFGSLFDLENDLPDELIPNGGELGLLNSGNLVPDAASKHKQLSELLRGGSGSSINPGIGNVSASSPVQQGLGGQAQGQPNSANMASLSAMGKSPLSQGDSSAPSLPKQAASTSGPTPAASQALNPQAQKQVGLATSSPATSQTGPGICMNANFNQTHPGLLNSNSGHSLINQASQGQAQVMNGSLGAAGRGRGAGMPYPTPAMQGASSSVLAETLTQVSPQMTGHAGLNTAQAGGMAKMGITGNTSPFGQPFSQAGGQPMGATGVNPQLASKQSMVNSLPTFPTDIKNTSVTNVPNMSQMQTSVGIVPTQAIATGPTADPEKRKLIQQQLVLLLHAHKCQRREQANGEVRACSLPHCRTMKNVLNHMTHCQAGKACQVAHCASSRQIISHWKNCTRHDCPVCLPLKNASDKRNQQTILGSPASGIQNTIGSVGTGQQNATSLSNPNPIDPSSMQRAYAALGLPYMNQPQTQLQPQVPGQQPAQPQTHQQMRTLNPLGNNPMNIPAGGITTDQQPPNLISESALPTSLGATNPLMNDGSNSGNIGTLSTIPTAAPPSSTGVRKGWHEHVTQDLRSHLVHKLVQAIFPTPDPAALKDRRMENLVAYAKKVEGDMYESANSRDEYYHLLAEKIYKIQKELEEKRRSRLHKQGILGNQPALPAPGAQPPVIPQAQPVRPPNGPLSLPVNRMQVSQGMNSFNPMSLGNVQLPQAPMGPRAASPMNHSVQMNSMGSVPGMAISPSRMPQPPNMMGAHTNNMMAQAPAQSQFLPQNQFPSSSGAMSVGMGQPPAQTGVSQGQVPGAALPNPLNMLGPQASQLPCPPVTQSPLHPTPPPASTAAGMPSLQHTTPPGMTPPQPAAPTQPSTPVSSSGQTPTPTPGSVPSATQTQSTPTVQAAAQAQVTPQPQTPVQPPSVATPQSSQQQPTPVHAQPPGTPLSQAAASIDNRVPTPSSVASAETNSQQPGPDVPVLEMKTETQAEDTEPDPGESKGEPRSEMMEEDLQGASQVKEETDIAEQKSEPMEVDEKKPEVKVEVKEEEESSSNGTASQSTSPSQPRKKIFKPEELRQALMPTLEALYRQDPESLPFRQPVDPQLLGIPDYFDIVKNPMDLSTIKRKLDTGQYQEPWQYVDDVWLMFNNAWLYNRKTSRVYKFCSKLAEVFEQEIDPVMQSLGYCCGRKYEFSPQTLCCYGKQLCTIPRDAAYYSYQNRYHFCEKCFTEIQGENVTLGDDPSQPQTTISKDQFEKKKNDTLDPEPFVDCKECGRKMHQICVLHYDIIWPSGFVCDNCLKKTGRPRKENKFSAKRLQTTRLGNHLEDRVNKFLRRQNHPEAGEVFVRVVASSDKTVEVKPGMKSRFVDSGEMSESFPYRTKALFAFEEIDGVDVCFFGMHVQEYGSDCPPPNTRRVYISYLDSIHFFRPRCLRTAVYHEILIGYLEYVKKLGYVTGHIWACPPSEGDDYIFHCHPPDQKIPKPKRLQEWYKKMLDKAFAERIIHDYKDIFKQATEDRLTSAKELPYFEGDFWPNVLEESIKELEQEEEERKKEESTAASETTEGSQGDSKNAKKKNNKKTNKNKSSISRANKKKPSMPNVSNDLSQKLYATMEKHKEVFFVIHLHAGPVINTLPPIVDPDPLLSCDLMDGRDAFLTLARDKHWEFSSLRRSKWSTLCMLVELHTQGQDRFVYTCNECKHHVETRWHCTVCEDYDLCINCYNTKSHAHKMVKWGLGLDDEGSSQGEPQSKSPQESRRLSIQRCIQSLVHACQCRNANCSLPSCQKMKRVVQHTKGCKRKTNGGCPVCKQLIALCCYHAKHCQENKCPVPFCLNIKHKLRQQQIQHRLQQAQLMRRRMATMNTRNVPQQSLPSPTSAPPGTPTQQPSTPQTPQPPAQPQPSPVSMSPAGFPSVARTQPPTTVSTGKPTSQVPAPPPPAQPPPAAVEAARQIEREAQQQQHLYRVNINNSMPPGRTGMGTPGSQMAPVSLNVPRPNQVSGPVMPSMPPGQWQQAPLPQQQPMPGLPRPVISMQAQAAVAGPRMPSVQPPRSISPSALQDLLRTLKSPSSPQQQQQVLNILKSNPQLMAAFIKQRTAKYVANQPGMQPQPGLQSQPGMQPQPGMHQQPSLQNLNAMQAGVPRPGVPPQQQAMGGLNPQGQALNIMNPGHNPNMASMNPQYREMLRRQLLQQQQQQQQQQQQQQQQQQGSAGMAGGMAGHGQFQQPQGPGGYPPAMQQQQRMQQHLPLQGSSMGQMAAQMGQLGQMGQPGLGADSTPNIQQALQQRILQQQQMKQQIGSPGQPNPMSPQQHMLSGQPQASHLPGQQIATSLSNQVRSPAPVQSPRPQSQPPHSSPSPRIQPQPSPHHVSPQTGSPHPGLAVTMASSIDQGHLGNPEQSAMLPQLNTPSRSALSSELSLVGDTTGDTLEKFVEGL

For orientation: IC50 means the midpoint of a concentration-inhibition curve. Lower therefore signals higher potency. On to `COC1=C(Cc2ccc(-c3cn(C)cc(C(=O)O)c3=O)s2)C(=O)N(c2ccc3ccccc3c2)C1`, for which the results for the IC50 in experiment [1], in experiment [2] and in experiment [3] were > 50 µM, 3.4 µM and > 50 µM, respectively.
In the case of `COC1=C(Cc2ccc(-c3cn(Cc4ccccc4)cc(C(=O)O)c3=O)s2)C(=O)N(c2ccc3ccccc3c2)C1`, the IC50 in experiment [1] is > 50 µM; in experiment [2], 1.3 µM; in experiment [3], > 50 µM.
